# Test results: patent US20210283109A1, “HETEROCYCLIC DIAMIDINES” (Friedrich-Alexander-Universität Erlangen-Nürnberg, priority 2016, published 2021)
# Tests used:
# [1] = test system: CCl4-induced hepatic fibrosis in mice; experiment: Carbon tetrachloride CCl4-induced hepatic fibrosis model; format: in vivo; settings: CCl4 i.p. twice weekly
# Experimental: (§1) Dermal fibroblasts from patients with SSc were cultured in the presence of DB1976. […] Moreover, in the presence of DB1976 differentiation of fibroblasts into matrix-producing myofibroblasts is inhibited (FIG. 3C). Bleomycin induced skin fibrosis was induced by local injections of bleomycin in C57Bl/6 mice (10 weeks of age, mixed genders) for four weeks. Subcutaneous injections of 0.9% NaCl served as a control. DB1976 was administered into tail vein every second day in different concentrations (1 mg/kg body weight; 5 mg/kg body weight) after first application of bleomycin. […] Bleomycin-induced pulmonary fibrosis was induced by a single intratracheal application of bleomycin in C57Bl/6 mice (12 weeks of age, males) using a high pressure syringe (Penn-Century, Wyndmoor, Pa., USA). Instillation of equal volumes of 0.9% NaCl served as a control. […] Carbon tetrachloride CCl4-induced hepatic fibrosis was induced by intraperitoneal (i.p.) injections of CCl4 in […] mice (14 weeks of age, mixed genders) (Palumbo-Zerr et al. Nature Medicine 21, 150-158 (2015)) twice weekly. […] DB1976 was also effective when initiated after fibrosis had already become manifest. In those experiments, mice were pre-challenged with bleomycin for 3 weeks to induce robust skin fibrosis. After 3 weeks, treatment with DB1976 was initiated, while injections with bleomycin were continued. […] Therapeutic application of DB1976 ameliorated skin thickness, collagen content and myofibroblast counts in the skin (FIG. 6A-F).
# (§2) FIG. 5: Model of bleomycin induced lung and CCI-4 induced liver fibrosis. (A) Representative images of sirius red staining of lung tissue from control mice (Wild-type (WT) treated with sodium chloride; n=4), bleomycin treated mice (n≥7) and mice treated with bleomycin and DB1976 (n=≥5); (B) quantification of the fibrotic area; (C, D) mRNA expression level of col1a1 and col1a2; (E) hydroxyproline content.
# [2] = test system: Bleomycin-induced pulmonary fibrosis in C57Bl/6 mice; experiment: Bleomycin-induced pulmonary fibrosis model; format: in vivo; settings: lung; compared to mice that received bleomycin without compound
# Experimental: as §1, §2
# [3] = test system: Cancer associated fibroblasts (CAFs); experiment: Matrix production of cancer associated fibroblasts activated by TGF-β; format: cell-based, human; settings: cultured with compound for 96 h, compared to CAFs without compound
# From the text: Cancer associated fibroblasts (CAFs) are associated with cancer cells at all stages of cancer progression, and their structural and functional contributions to this process are well known. This implies that CAFs have a prominent role in the progression, growth and spread of cancers and represent an important target for cancer therapies.
# FIG. 7: DB1976 inhibits collagen production of cancer associated fibroblasts (CAFs). (A) Quantification of PU.1-expressing fibroblasts in healthy colon tissue compared to tumor tissue (colorectal carcinoma). Cells are counted per high power field (HPF). (B) collagen production of CAFs assessed by western blot analysis; PU.1, collagen and β-actin expression in response to stimulation w/o TGF-β in the presence and absence of DB1976; representative blots of 6 independent experiments are shown. […] (C) Immune fluorescence microscopy of fibroblasts from healthy tissue (HC) and CAFs cultured w/o DB1976; DAPI and alpha smooth muscle actin (αSMA) are stained. Representative images of 5 independent experiments are shown. *p<0.05; **p<0.01 determined by Mann-Whitney U-test for non-parametric data.
# PU.1 = settings: cited from earlier work
# [4] = test system: Dermal fibroblasts from patients with SSc; experiment: Formazan toxicity assay of fibroblasts; format: cell-based, human; settings: dermal fibroblasts from SSc patients cultured with different concentrations of compound
# Experimental: (§3) Dermal fibroblasts from patients with SSc were cultured in the presence of DB1976. […] Moreover, in the presence of DB1976 differentiation of fibroblasts into matrix-producing myofibroblasts is inhibited (FIG. 3C). Bleomycin induced skin fibrosis was induced by local injections of bleomycin in C57Bl/6 mice (10 weeks of age, mixed genders) for four weeks. Subcutaneous injections of 0.9% NaCl served as a control. DB1976 was administered into tail vein every second day in different concentrations (1 mg/kg body weight; 5 mg/kg body weight) after first application of bleomycin. […] Bleomycin-induced pulmonary fibrosis was induced by a single intratracheal application of bleomycin in C57Bl/6 mice (12 weeks of age, males) using a high pressure syringe (Penn-Century, Wyndmoor, Pa., USA). […]
# (§4) (A) Formazan toxicity assay of fibroblasts incubated with different concentrations of DB1976 as indicated; (B) human diseased dermal fibroblasts untreated or stimulated with either TGF-β alone or TGF-β plus DB1976; collagen protein level and mRNA level of col1a1 relative to control. […] (C) Immune fluorescence microscopy of cultured fibroblasts as indicated; cells are stained with DAPI, alpha smooth muscle actin (αSMA) and stress fibers. Representative image of 5 independent experiments are shown. *p<0.05 determined by Student's t test according pretest for normality (D'Agostino-Pearson normality test).
# [5] = test system: Dermal fibroblasts from patients with SSc; experiment: Differentiation of fibroblasts into matrix-producing myofibroblasts (αSMA, stress fibers, immune fluorescence microscopy); format: cell-based, human; settings: in the presence of compound
# Experimental: as §3, §4
# [6] = test system: human diseased dermal fibroblasts; experiment: Collagen release from fibroblasts after stimulation with TGF-β; format: cell-based; settings: compared to TGF-β alone
# Experimental: as §3
# as §4, with “test). […]” for “test).”
# [7] = test system: Bleomycin induced skin fibrosis in C57Bl/6 mice; experiment: Bleomycin induced skin fibrosis model; format: in vivo; settings: tail vein every second day, 1 and 5 mg/kg body weight, bleomycin four weeks; concentration dependent
# Experimental: as §1
# FIG. 4: Model of bleomycin induced skin fibrosis. (A) Representative images of trichrome staining of skin tissue from control mice (Wild-type (WT) treated with sodium chloride; n≥7), bleomycin treated mice (n=10) and mice treated with bleomycin and different concentrations of DB1976 (n≥8 each); (B;C) mRNA collagen1a1 or collagen1a2 expression; (D) dermal thickness; (E) quantification of α-smooth muscle actin-positive myofibroblasts; (F) hydroxyproline content.
# [8] = test system: pre-established bleomycin induced skin fibrosis in mice; experiment: Regression of pre-established bleomycin induced skin fibrosis; format: in vivo; settings: 6 weeks of bleomycin, treatment for the last 3 weeks
# Experimental: as §1
# FIG. 6: Regression of pre-established bleomycin induced skin fibrosis by treatment with DB1976. Mice were pre-challenged with bleomycin for 3 weeks to induce robust skin fibrosis. After 3 weeks, treatment with DB1976 was initiated, while injections with bleomycin were continued. After a total of 6 weeks of bleomycin and 3 weeks of treatment with DB1976, the extent of fibrosis was assessed. (A) Representative images of trichrome staining of skin tissue from control mice (Wild-type (WT) treated with sodium chloride; n≥4), 3 weeks bleomycin and afterwards 3 weeks sodium chloride treated mice (n≥8), bleomycin treated mice (n≥8) and mice treated with bleomycin and different concentrations of DB1976 (n≥3 each); (B;C) mRNA expression level of col1a1 and col1a2; (D) dermal thickness; (E) quantification of α-smooth muscle actin-positive myofibroblasts; (F) hydroxyproline content.
# apoptosis = experiment: Apoptosis by staining for cleaved caspase-3 or TUNEL assays
# mice = experiment: Tolerability of treatment in mice; format: in vivo
# Experimental: Dermal fibroblasts from patients with SSc were cultured in the presence of DB1976. […] Moreover, in the presence of DB1976 differentiation of fibroblasts into matrix-producing myofibroblasts is inhibited (FIG. 3C). Bleomycin induced skin fibrosis was induced by local injections of bleomycin in C57Bl/6 mice (10 weeks of age, mixed genders) for four weeks. Subcutaneous injections of 0.9% NaCl served as a control. DB1976 was administered into tail vein every second day in different concentrations (1 mg/kg body weight; 5 mg/kg body weight) after first application of bleomycin. […] Bleomycin-induced pulmonary fibrosis was induced by a single intratracheal application of bleomycin in C57Bl/6 mice (12 weeks of age, males) using a high pressure syringe (Penn-Century, Wyndmoor, Pa., USA). Instillation of equal volumes of 0.9% NaCl served as a control. […] Carbon tetrachloride CCl4-induced hepatic fibrosis was induced by intraperitoneal (i.p.) injections of CCl4 in […] mice (14 weeks of age, mixed genders) (Palumbo-Zerr et al. Nature Medicine 21, 150-158 (2015)) twice weekly. […] DB1976 was also effective when initiated after fibrosis had already become manifest. In those experiments, mice were pre-challenged with bleomycin for 3 weeks to induce robust skin fibrosis. After 3 weeks, treatment with DB1976 was initiated, while injections with bleomycin were continued. […]
smiles,measurement,setting,value
N=C(N)c1ccc2nc(-c3ccc(-c4nc5ccc(C(=N)N)cc5[nH]4)[se]3)[nH]c2c1 [DB1976],fibrotic tissue remodeling of the liver,[1],significant less
same,collagen production,[1]; liver,less
same,myofibroblast differentiation,[1]; liver,less
same,Ashcroft score,[2],reduced
same,collagen expression (hydroxyproline content),[2],decreased
same,collagen expression (mRNA),[2],decreased
same,myofibroblast count,[2],decreased
same,volume of fibrotic area,[2],decreased
same,alpha smooth muscle actin (αSMA),[3],significant reduction
same,collagen production,[3],significant reduction
same,stress fiber expression,[3],significant reduction
same,inhibition of PU.1-binding to the DNA of PU.1 target genes,PU.1,potent inhibitor
same,toxic effects in formazan toxicity assays,[4],did not observe toxic effects
same,differentiation of fibroblasts into matrix-producing myofibroblasts,[5],inhibited
same,collagen release from fibroblasts,[6],strong reduction
same,collagen release assessed by col1a2 mRNA expression,[7],significantly decreased
same,collagen release assessed by hydroxyproline content of the skin,[7],significantly decreased
same,myofibroblast differentiation,[7],significantly decreased
same,skin thickening,[7],significantly decreased
same,collagen content in the skin,[8],ameliorated
same,myofibroblast counts in the skin,[8],ameliorated
same,skin thickness,[8],ameliorated
same,extent of fibrosis,[8]; compared to controls,significantly reduced
same,apoptosis by TUNEL assays,apoptosis,did not detect any evidence of apoptosis
same,apoptosis in staining for cleaved caspase-3,apoptosis,did not detect any evidence of apoptosis
same,clinical evidence of toxicity,mice,no clinical evidence of toxicity
same,tolerability of treatment,mice,well-tolerated
